How the values were obtained:
[1] = system: marine bacterium Vibrio sp.; assay: Lag phase shortening in Vibrio sp.; type: cell-based; settings: 2 μM compound
Protocol: The bacterial strain Phaeobacter inhibens DSM 17395 was purchased from the German collection of microorganisms and cell cultures (DSMZ, Braunschweig, Germany) and stored at −80° C. with 20% glycerol. Routine cultivation of P. inhibens was conducted at 30° C. in artificial seawater medium (ASW) based on Goyet and Poisson (1989). The ASW medium contained mineral salts (NaCl, 409.41 mM; Na2SO4, 28.22 mM; KCl, 9.08 mM; KBr, 0.82 mM; NaF, 0.07 mM; Na2CO3, 0.20 mM; NaHCO3, 2 mM; MgCl2, 50.66 mM; SrCl2, 0.09 mM), L1 vitamins (thiamine HCl, 100 μg/L; biotin, 0.5 μg/L; vitamin B12, […]), L1 trace elements (Na2EDTA·2H2O, 4.36 mg/L; FeCl3·6H2O, 3.15 mg/L; MnCl2·4H2O, 178.1 μg/L; ZnSO4·7H2O, 23.0 μg/L; CoCl2·6H2O, 11.9 μg/L; CuSO4·5H2O, 2.5 μg/L; Na2MoO4·2H2O, 19.9 μg/L; H2SeO3, 1.29 μg/L; NiSO4·6H2O, 2.63 μg/L; Na3 VO4, 1.84 μg/L; K2CrO4, 1.94 μg/L), and L1 nutrients (NaNO3, 882 μM; NaH2PO4, 36.22 μM). ASW was adjusted to pH 8 using HCl. […] A 96-well Tecan Infinite M Plex plate reader was used for high-resolution monitoring of bacterial growth dynamics at 30° C. […] The growth of bacteria in co-culture with algae was monitored by counting colony forming units (CFU) on ½ YTSS agar plates. The growth of algae was monitored with a CellStream flow cytometer (Merck, Darmstadt, Germany). […]

[2] = system: betaine-homocysteine S-methyltransferase (Bmt); assay: Methionine synthesis in vitro assay with purified Bmt; type: biochemical, P. inhibens; settings: 200 μM methyl group donor, 2 mM homocysteine, 30° C., 2 h, fluorometric
Protocol: The expression plasmid pET29b encoding the bmt gene with a Strep-tag II peptide sequence fused to the N-terminus was purchased from Twist Biosciences. The methionine synthase gene mmuM from E. coli was PCR-amplified (Phusion High-Fidelity DNA polymerase, Thermo Scientific) and cloned into the pET29b vector using the CPEC technique (Quan J. & Tian J., 2009). Resulting clones were validated by sanger sequencing. E. coli BL21 electrocompetent cells were transformed with […] of the expression vectors, and cells were selected on LB agar plates containing 50 μg/ml kanamycin. Bacteria were grown in Tryptone Yeast extract Glucose (TYG) medium supplemented with 50 μg/ml kanamycin at 37° C. to mid-log phase (OD600 0.7). Then, cultures were induced with 0.2 mM of IPTG for 3 hours at 37° C. Bacteria were harvested by centrifugation (4,000 rpm for 15 min at 4° C.) and cells were resuspended in 20 mL of NP buffer (50 mM NaH2PO4, 300 mM NaCl, pH 8) and 100 μl of 10× Protease inhibitor (Sigma). […] The Protein concentration was determined with the Protein Assay Dye Reagent Concentrate (BioRad) following the manufacturer's instructions. […]
The methionine synthesis in vitro assay was based on the protocol of Ranocha et al., 2000. […] Methionine formation was measured from 20 μl of the in vitro reactions using the Fluorometric Methionine Assay Kit (Sigma; results depicted in FIG. 14). […]

C[S+](C)CCC(=O)[O-] [DMSP, dimethylsulfoniopropionate]
lag phase shortening [1]: induction of the lag phase shortening
methionine formation with DMSP as methyl group donor [2]: catalyzes the production of methionine

Source: patent US20260015574A1, “METHODS FOR SHORTENING LAG PHASE DURATION IN MICROORGANISMS” (YEDA RESEARCH AND DEVELOPMENT CO. LTD., priority 2022, published 2026)
